Here are results for 16 molecules from ChEMBL document CHEMBL1132127, “Thrombin inhibitors based on [5,5] trans-fused indane lactams” (Bioorg Med Chem Lett, 1999).

Targets include Coagulation factor X (Homo sapiens, UniProt P00742); Prothrombin (Homo sapiens, UniProt P00734); Serine protease 1 (Homo sapiens, UniProt P07477).
The nature of series [1]: Half life time in human plasma. Type of series: ADME, cell-free.

Chain of Serine protease 1 (P07477 whole entry): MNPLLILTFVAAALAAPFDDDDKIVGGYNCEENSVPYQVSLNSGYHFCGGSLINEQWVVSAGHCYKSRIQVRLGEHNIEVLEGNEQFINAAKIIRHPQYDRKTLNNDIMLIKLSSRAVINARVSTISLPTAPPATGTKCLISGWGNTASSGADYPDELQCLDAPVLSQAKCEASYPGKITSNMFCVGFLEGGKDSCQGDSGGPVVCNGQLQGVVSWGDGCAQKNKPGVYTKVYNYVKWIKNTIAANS
Chain of Coagulation factor X (P00742 41-179 limits assumed): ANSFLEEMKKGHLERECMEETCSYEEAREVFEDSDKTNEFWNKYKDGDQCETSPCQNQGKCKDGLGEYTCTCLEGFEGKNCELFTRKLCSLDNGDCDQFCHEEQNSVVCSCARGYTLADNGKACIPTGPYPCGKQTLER
Chain of Coagulation factor X (P00742 235-488 limits assumed): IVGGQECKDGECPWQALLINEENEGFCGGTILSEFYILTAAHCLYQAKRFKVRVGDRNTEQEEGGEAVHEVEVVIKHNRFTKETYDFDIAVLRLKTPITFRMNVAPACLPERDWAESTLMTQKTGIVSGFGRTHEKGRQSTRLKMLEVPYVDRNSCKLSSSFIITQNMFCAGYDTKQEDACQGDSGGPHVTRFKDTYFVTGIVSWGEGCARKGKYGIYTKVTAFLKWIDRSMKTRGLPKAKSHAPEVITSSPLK
Description for Coagulation factor X: Inhibition of activated Coagulation factor X

As for `COC(=O)CN1C(=O)[C@H](CCCCC(=N)N)[C@H]2c3ccccc3C[C@@H]21`, the 50% inhibitory concentration (IC50) (usually the midpoint of a concentration-inhibition curve) was greater than 200 µM against Coagulation factor X, 43 µM against Prothrombin and greater than 200 µM on Serine protease 1.

As for `CCN(CC)C(=O)c1cccc(-c2ccc3c(c2)[C@@H]2[C@@H](CCCCC(=N)N)C(=O)N(C(=O)OC)[C@H]2C3)c1`, the half-life – broadly, the time needed for the level to fall by half in the phase considered – in series [1] is 17 h. Further, the IC50 was 2.2 µM at Coagulation factor X, 0.05 µM on Prothrombin and 2.2 µM against Serine protease 1.

Regarding `CCN(CC)C(=O)c1cccc(-c2ccc3c(c2)[C@@H]2[C@@H](CCCCC(=N)N)C(=O)N(CCCCCc4ccccc4)[C@H]2C3)c1`, the IC50 is greater than 50 µM at Coagulation factor X, 5 µM at Prothrombin and greater than 50 µM against Serine protease 1.

For `CCN(CC)C(=O)c1cccc(-c2ccc3c(c2)[C@@H]2[C@@H](CCCCC(=N)N)C(=O)N(S(=O)(=O)c4ccccc4)[C@H]2C3)c1`, the IC50 at Coagulation factor X stood at 0.074 µM; on Prothrombin it was 0.016 µM; on Serine protease 1, 0.066 µM.

`CC(=O)O[C@@H]1CC[C@]2(C)C3CC[C@@]4(C)[C@H]5[C@@H](C[C@]4(C)C3=CCC2[C@]1(C)C(=O)O)OC(=O)[C@@H]5CC(=O)C=C(C)C` (stereo partly drawn) displayed an IC50 against Prothrombin of 4 µM.

For `CCN(CC)C(=O)c1cccc(-c2ccc3c(c2)C[C@H]2[C@H]3[C@@H](CCCCC(=N)N)C(=O)N2C(=O)OCCCc2ccccc2)c1`, the results for the IC50 against Coagulation factor X, against Prothrombin and against Serine protease 1 were 3.6 µM, 0.66 µM and 0.62 µM, respectively.

As for `CCN(CC)C(=O)c1cccc(-c2ccc3c(c2)C[C@H]2[C@H]3[C@@H](CCCCC(=N)N)C(=O)N2CCCCCc2ccccc2)c1`, the IC50 against Coagulation factor X turned out to be 26 µM; against Prothrombin it was 5 µM; on Serine protease 1 it was 8.4 µM.

`CCNC(=O)N1C(=O)[C@H](CCCCC(=N)N)[C@H]2c3cc(-c4cccc(C(=O)N(CC)CC)c4)ccc3C[C@@H]21`: the IC50 against Coagulation factor X was greater than 100 µM; against Prothrombin, 3 µM; against Serine protease 1 it was greater than 100 µM.

Take `CCOP(=O)(OCC)N1C(=O)[C@H](CCCCC(=N)N)[C@H]2c3ccc(-c4cccc(C(=O)N(CC)CC)c4)cc3C[C@@H]21`: the IC50 at Coagulation factor X stood at 20 µM; against Prothrombin, 3.2 µM; against Serine protease 1 it was 1.7 µM.

For the molecule `N=C(N)CCCC[C@H]1C(=O)N[C@H]2Cc3ccccc3[C@@H]21`, the half-life in series [1] is greater than 24 h. In addition, the IC50 against Coagulation factor X, against Prothrombin and against Serine protease 1 was greater than 200 µM in each case.

As to `CCN(CC)C(=O)c1cccc(-c2ccc3c(c2)C[C@H]2[C@H]3[C@@H](CCCCC(=N)N)C(=O)N2C(=O)OC)c1`, the half-life in series [1] is 24 h. Moreover, the IC50 at Coagulation factor X was 0.12 µM; against Prothrombin, 0.016 µM.

As for `N=C(N)CCCC[C@H]1C(=O)N(CCCCCc2ccccc2)[C@H]2Cc3ccccc3[C@H]12`, the IC50 against Coagulation factor X is greater than 100 µM; against Prothrombin, 13 µM; on Serine protease 1, 9.7 µM.

In the case of `CCN(CC)C(=O)c1cccc(-c2ccc3c(c2)[C@@H]2[C@@H](CCCCC(=N)N)C(=O)N(COC(C)=O)[C@H]2C3)c1`, the IC50 on Coagulation factor X came out at 14 µM; against Prothrombin, 12 µM; at Serine protease 1, 36 µM.

Take `CCC(=O)N1C(=O)[C@H](CCCCC(=N)N)[C@H]2c3cc(-c4cccc(C(=O)N(CC)CC)c4)ccc3C[C@@H]21`: the IC50 at Coagulation factor X turned out to be 9.9 µM; against Prothrombin, 0.38 µM; against Serine protease 1 it was 8.3 µM.

With `CCN(CC)C(=O)c1cccc(-c2ccc3c(c2)[C@@H]2[C@@H](CCCCC(=N)N)C(=O)N(C(=O)OCCCc4ccccc4)[C@H]2C3)c1`, the values for the IC50 against Coagulation factor X, against Prothrombin and at Serine protease 1 were 3.7 µM, 0.13 µM and 2.3 µM, respectively.

In the case of `CCN(CC)C(=O)c1cccc(-c2ccc3c(c2)[C@@H]2[C@@H](CCCCC(=N)N)C(=O)N(C(=O)N(C)C)[C@H]2C3)c1`, the IC50 is greater than 20 µM against Coagulation factor X, 11 µM at Prothrombin and greater than 20 µM on Serine protease 1.
